Results reported in paper PMC9127493 (Signal Transduction and Targeted Therapy, 2022).
pEC50, pKd: −log10 of the molar value. Read-outs that look alike come from different tables or passages of the source.

Columns and labels:
Vero E6 cells = assay: Morphological observations, cytoplasmic vacuolization; type: cell-based, African green monkey; conditions: for induction of cytoplasmic vacuoles: Vero E6 cells, 5 μM, 8 h
Protocol: Morphological observations
Cells were seeded into 96-well plates and treated with test drugs for indicated time periods. Pictures of cells were subsequently obtained using Biotek Cytation-5&BioSpa8.

[1] = set-up: method as in PMID 31628917; conditions: patients with Crohn’s disease and rheumatoid arthritis; cited from earlier work
[2] = Antiproliferation (MTS) assay, cytotoxicity; type: cell-based; conditions: African green monkey, Vero E6 cells
Protocol: (§1) Cell viability was determined using MTS (Promega, Madison, WI, USA), according to the manufacturer’ s instructions. The absorbance was measured in Varioskan Flash (Thermo) at 490 nm. Data were normalized to the control group (DMSO). CC50 values were calculated by concentration-response curve-fitting using GraphPad Prism.

[3] = test system: SARS-CoV-2 wild-type isolate XM088T; assay: Antiviral efficacy assay, qRT-PCR of virus released in supernatants; type: cell-based; conditions: MOI of 0.05, pretreated 2 h, qRT-PCR at 48 h p.i., n = 3
293T-ACE2iRb3 cells = assay: Visualization of SARS-CoV-2 cell entry with STG probe; type: cell-based, human; conditions: pretreated with 2 μM for 1 h, 3 h post STG incubation
Protocol: Visulization of SARS-CoV-2 cell entry
To visualize the effect of drugs on viral entry, 293T-ACE2iRb3 cells were pretreated with serially diluted drugs for 1 h before STG probes addition for further incubation. Cell images shown in Fig 1e were acquired using a 100× oil immersion objective. The data shown in Fig S3 was derived from images acquired on Opera Phenix using 40× water immersion objective. For images of Fig 1e, cells were gently washed twice with PBS after 3 h incubation with STG, following a paraformaldehyde fixation before imaging. Cell images involved in Fig S3 were obtained under wash-free and live-cell conditions. The construction of STG probe used here and the image quantitative analysis were performed as previously described^1.
All drugs were tested in a 3-fold dilution series and the initial drug concentration was 15 μM. Three and five replicate wells were performed for the DMSO and drug groups, respectively. 25 fields of each well were imaged for quantitative analyses after 3 h incubation with STG-probe.

SARS-CoV-2 [4] = assay: Cytopathic effect (CPE) inhibition assay in Vero E6 cells; type: cell-based; conditions: wild-type SARS-CoV-2, MOI = 0.1, 48 h
[5] = Cytotoxicity of drugs used in pseudovirus experiments (MTS); type: cell-based; conditions: human; 293T-hACE2 cells, MTS assay at 48 hours, n = 3
Protocol: as §1, with “Cells were seeded into 96-well plates and exposed to serially diluted drugs for 48 h. Cell” for “Cell”
293T-hACE2 cells were treated with serially diluted drugs and cytotoxicity was determined by MTS assay at 48 hours (n = 3).

PIKfyve = target: T1, PIKfyve (Homo sapiens, UniProt Q9Y2I7); assay: KINOMEscan competitive binding assay, Kds determination
T1 construct: purchased Eurofins DiscoverX Corporation (KINOMEscan service); host or cells: HEK-293
From the text: KINOMEscan technology is a competitive affinity-based binding assay provided by Eurofins DiscoverX Corporation^3. Briefly, kinases were produced in HEK-293 cells and tagged with DNA for qPCR detection. Affinity resins were generated by treating streptavidin-coated magnetic beads with biotinylated small molecule ligands. For binding assays, the liganded beads were combined with DNA-tagged kinases and the test compounds. DMSO was used as a control. Compounds that bind to the DNA-tagged kinases will prevent these kinases binding with immobilized ligands and reduce the amount of the corresponding kinases captured on solid support. Kds were determined using 11 serial threefold dilutions of the test compounds and a DMSO control.
Supplementary Figure S1. The equilibrium dissociation constant (Kd) for XMU-MP-7 with PIKfyve was determined from 2 independent titration curves.

cathepsin B = assay: Cathepsin B activation, Western blot; type: cell-based, human; conditions: A549 cells, time- and dose-dependent
SARS-CoV-2 [6] = assay: Time-of-addition experiment; type: cell-based; conditions: Vero E6 cells, qRT-PCR at 24 h p.i. and nucleoprotein Western blot
Protocol: Time-of-addition experiment
Vero E6 cells were plated into 6-well plates and grew overnight. During “Full-time” treatment, cells were first treated with drug for two hours, and then infected with the virus for two hours. After that, the mixed supernatant was removed and cells were washed twice with PBS and finally cultured in fresh medium containing the same concentration of drug. For “Entry” treatment, pre-treatment and infection operations were similar to that in “Full-time” treatment. However, cells were cultured in drug-free medium after the mixed supernatant removed. As for “Post-entry” treatment, cells were infected with virus for 2 h before treated with drug for 2 h. Then the mixture was removed and fresh medium containing drug was added after cells were washed with PBS. The DMSO-control group was treated in the same way as “Full-time” group. For quantitative PCR, the MOI was controlled at 0.05 and supernatant was harvest at 24 h post infection. While for western blot, MOI was controlled at 0.30 and cells were harvest at 72 h post infection to identify the virus protein expression.

[7] = Pharmacokinetics after single intravenous and oral administration; type: in vivo; conditions: Sprague Dawley, plasma, rat; for MRT inf: read-out: MRT(0-∞)
Protocol: The pharmacokinetics of XMU-MP-7 were determined following single intravenous and oral administration in Sprague Dawley rat (N = 3/each) at the dose indicated. Blood samples were collected at 0.08, 0.25, 0.5, 1, 2, 4, 8 & 24 hr (IV) & 0.25, 0.5, 1, 2, 4, 6, 8 & 24 hr (PO) post dose. Then the samples were quantified by LC-MS/MS, and data analysis was conducted using WinNonlin V6.3. IV = intravenous injection, PO = oral delivery, Tmax = time of maximum plasma concentration, Cmax = maximum plasma concentration, AUC = area under the curve (measure of exposure), T1/2 = half life, Cl = plasma clearance, Vd = volume of distribution, F = oral bioavailability.

[8] = Severe acute respiratory syndrome coronavirus 2, Vero C1008, Vero E6 cells

T1 sequence (Q9Y2I7 whole entry): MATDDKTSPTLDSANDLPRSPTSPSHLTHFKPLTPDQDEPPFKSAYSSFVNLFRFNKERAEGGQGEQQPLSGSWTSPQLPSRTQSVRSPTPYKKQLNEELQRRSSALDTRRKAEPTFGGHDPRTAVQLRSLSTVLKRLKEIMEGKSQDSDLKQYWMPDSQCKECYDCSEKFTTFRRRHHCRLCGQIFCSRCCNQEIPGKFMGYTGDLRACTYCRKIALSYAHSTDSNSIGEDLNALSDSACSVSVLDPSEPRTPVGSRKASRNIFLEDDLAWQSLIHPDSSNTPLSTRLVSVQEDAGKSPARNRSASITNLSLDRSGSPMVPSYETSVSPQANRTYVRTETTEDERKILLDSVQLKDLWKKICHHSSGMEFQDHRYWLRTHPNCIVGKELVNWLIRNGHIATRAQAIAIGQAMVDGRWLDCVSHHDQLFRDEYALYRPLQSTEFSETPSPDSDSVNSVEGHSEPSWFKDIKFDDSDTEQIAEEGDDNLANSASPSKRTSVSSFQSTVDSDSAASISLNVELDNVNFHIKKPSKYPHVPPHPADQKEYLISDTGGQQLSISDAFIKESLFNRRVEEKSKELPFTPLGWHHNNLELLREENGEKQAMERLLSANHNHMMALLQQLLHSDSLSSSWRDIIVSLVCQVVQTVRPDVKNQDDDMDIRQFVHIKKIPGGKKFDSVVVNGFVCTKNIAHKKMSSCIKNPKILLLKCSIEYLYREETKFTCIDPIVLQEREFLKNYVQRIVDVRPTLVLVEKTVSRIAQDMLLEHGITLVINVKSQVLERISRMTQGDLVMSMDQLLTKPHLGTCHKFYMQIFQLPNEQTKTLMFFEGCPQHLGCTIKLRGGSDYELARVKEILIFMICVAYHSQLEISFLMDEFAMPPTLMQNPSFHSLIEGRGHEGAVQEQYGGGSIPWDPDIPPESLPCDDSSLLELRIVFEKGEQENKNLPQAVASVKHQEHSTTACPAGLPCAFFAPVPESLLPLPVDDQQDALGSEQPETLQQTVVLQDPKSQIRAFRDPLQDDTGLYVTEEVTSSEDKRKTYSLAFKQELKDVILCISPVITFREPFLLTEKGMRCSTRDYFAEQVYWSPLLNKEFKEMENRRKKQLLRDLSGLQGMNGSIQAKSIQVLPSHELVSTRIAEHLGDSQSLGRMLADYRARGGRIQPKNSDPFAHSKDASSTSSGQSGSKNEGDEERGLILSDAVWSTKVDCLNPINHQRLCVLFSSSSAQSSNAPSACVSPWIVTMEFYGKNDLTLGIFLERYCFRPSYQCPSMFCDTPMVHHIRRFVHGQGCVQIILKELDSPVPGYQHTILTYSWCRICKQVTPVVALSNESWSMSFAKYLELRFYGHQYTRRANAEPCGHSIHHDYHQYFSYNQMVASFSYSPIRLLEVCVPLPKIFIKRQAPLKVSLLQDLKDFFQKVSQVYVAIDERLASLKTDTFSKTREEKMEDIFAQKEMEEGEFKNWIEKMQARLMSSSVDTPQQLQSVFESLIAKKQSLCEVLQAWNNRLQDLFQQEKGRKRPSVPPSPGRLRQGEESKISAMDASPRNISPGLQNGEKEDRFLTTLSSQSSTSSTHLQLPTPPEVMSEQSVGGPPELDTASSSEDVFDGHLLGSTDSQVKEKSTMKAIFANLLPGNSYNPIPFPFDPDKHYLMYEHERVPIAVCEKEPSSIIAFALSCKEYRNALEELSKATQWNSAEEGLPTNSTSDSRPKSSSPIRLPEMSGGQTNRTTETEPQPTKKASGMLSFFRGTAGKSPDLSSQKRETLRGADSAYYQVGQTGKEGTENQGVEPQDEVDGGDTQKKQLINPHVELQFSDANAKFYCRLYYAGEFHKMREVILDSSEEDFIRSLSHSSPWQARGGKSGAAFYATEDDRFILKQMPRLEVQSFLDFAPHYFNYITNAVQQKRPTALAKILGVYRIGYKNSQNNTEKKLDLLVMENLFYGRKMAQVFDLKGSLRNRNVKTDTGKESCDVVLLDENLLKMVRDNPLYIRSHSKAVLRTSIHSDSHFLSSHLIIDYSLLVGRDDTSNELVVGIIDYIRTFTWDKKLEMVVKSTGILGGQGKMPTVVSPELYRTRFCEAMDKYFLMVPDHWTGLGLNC

| SMILES | time to visible cytoplasmic vacuoles (Vero E6 cells) | induction of cytoplasmic vacuoles (Vero E6 cells) | CC50 at 48 h ([2]; 48 h, n = 3) [µM] | pEC50 [3, 8] | STG probe internalization (confocal images) (293T-ACE2iRb3 cells) | rescue of cytopathic effect (SARS-CoV-2 [4]) | CC50 at 48 h [5] [µM] | pKd (PIKfyve) | stage of infection at which the drug acts (SARS-CoV-2 [6]) | also measured |
| --- | --- | --- | --- | --- | --- | --- | --- | --- | --- | --- |
| Cc1cccc(/C=N/Nc2cc(N3CCOCC3)nc(OCCc3ccccn3)n2)c1 [Apilimod] | less than 20 min | induced cytoplasmic vacuoles | 41.8 | > 8.16 | almost completely trapped on the enlarged cytoplasmic vacuoles | significantly rescued the cytopathic effects | > 10 | – | – | bioavailability [1]: poor bioavailability; plasma concentration [1]: unexpected low plasma concentration |
| CCN(CC)CCCC(C)Nc1ccnc2cc(Cl)ccc12 (stereo not drawn) [Chloroquine] | – | – | 54.8 | 6.26 | – | – | – | – | – | pEC50 ([3]; Vero E6 cells): ~6.30 |
| CC(C)(C)[C@H](NC(=O)C(F)(F)F)C(=O)N1C[C@H]2[C@@H]([C@H]1C(=O)N[C@H](C#N)C[C@@H]1CCNC1=O)C2(C)C [PF-07321332] | – | – | – | – | – | – | – | – | – | pEC50 ([3]; Vero E6 cells, read-out: EC50): 6.31 |
| Cc1ccc(NC(=O)c2cccc(C(F)(F)F)c2)cc1Nc1nc(-c2ccncc2)c2[nH]ccc2n1 [cmpd 24] | – | could not induce visible vacuoles | 51.7 | 4.91 | STG entered the cytoplasm | – | > 10 | < 4.52 | – | – |
| COc1ccc(C(=O)Nc2cccc(C(F)(F)F)c2)cc1Nc1nc(-c2cccnc2)c2[nH]ccc2n1 [XMU-MP-7] | less than 20 min | dramatically induced cytoplasmic vacuoles | – | 8.03 | almost completely trapped on the enlarged cytoplasmic vacuoles | significantly rescued the cytopathic effects | > 10 | 8.19 | potent antiviral roles at both entry and post-entry stages | CC50 at 48 h [2]: > 150 µM; maturation of active cathepsin B (cathepsin B): impaired the maturation of active cathepsin B; AUC(0-inf) ([7]; IV, 2 mg/kg): 4250 ng·h/mL; AUC(0-t) ([7]; IV, 2 mg/kg): 4250 ng·h/mL; C0 ([7]; IV, 2 mg/kg): 14000 ng/mL; Tmax ([7]; IV, 2 mg/kg): 0.08 h; Vd ([7]; IV, 2 mg/kg): 0.2 L/kg; clearance ([7]; IV, 2 mg/kg): 7.88 mL/min/kg; half-life ([7]; IV, 2 mg/kg): 36.5 min; MRT inf ([7]; IV, 2 mg/kg): 0.429 h; AUC(0-inf) ([7]; PO, 10 mg/kg): 2210 ng·h/mL; AUC(0-t) ([7]; PO, 10 mg/kg): 2200 ng·h/mL; Cmax ([7]; PO, 10 mg/kg): 429 ng/mL; Tmax ([7]; PO, 10 mg/kg): 2.33 h; half-life ([7]; PO, 10 mg/kg): 184 min; bioavailability ([7]; PO, 10 mg/kg, read-out: F (oral bioavailability)): 10.4%; MRT inf ([7]; PO, 10 mg/kg): 3.81 h |
| CCC(CC)COC(=O)[C@H](C)N[P@](=O)(OC[C@H]1O[C@@](C#N)(c2ccc3c(N)ncnn23)[C@H](O)[C@@H]1O)Oc1ccccc1 [Remdesivir] | – | – | > 150 | 5.78 | STG entered the cytoplasm | – | – | – | only exerted an inhibitory effect at post-entry stage | – |
